{
  "source": "patent US20220281848A1",
  "about": "“PYRAZOLE-SUBSTITUTED PYRROLIDINONES AS HERBICIDES” (FMC Corporation, priority 2019, published 2022)",
  "system": "plants",
  "assay": "Test D post-emergence, other plants of Tables D2 and D4",
  "format": "in vivo",
  "details": "post-emergence",
  "experimental": "A formulation containing 50 g/L of the test chemical was prepared by dissolving the active ingredient in a mixture of organic solvents and emulsifier, details of which are provided in the table. This formulation was then mixed with a small, variable amount of acetone to aid dissolution, before addition of a 0.2% v/v aqueous solution of an adjuvant, as the aqueous diluent, to form an aqueous spray solution which contains a predetermined concentration of the active ingredient.\nThis aqueous spray solution was then sprayed onto plants including maize and wheat that had been seed treated with a herbicide safener, after one day's cultivation (for pre-emergence) or after about 12 days' cultivation (for post-emergence). The plants were grown from seeds sown in standard soil, placed in a glasshouse under controlled conditions (at 24/18° C. or 20/16° C., day/night; 16 h light; 65% humidity). After spray application the plants were then grown in a glasshouse under the same conditions and watered twice daily. After 15 d for post-emergence and 20 DAA for pre-emergence the test was evaluated (100=total damage to plant; 0=no damage to plant).",
  "data": [
    {"smiles": "CN1CC(c2cc(C(F)(F)F)n(C)n2)C(C(=O)Nc2cccc(F)c2F)C1=O", "note": "(racemic) [Compound 3]", "values": [
      {"measurement": "damage to plant (100=total damage to plant; 0=no damage to plant), ABUTH", "setting": "rate 130, evaluated after 15 d", "value": 0},
      {"measurement": "damage to plant (100=total damage to plant; 0=no damage to plant), ABUTH", "setting": "rate 250, evaluated after 15 d", "value": 0},
      {"measurement": "damage to plant (100=total damage to plant; 0=no damage to plant), ABUTH", "setting": "rate 500, evaluated after 15 d", "value": 0},
      {"measurement": "damage to plant (100=total damage to plant; 0=no damage to plant), AMARE", "setting": "rate 130, evaluated after 15 d", "value": 0},
      {"measurement": "damage to plant (100=total damage to plant; 0=no damage to plant), AMARE", "setting": "rate 250, evaluated after 15 d", "value": 0},
      {"measurement": "damage to plant (100=total damage to plant; 0=no damage to plant), AMARE", "setting": "rate 500, evaluated after 15 d", "value": 10},
      {"measurement": "damage to plant (100=total damage to plant; 0=no damage to plant), BIDPI", "setting": "rate 130, evaluated after 15 d", "value": 0},
      {"measurement": "damage to plant (100=total damage to plant; 0=no damage to plant), BIDPI", "setting": "rate 250, evaluated after 15 d", "value": 0},
      {"measurement": "damage to plant (100=total damage to plant; 0=no damage to plant), BIDPI", "setting": "rate 500, evaluated after 15 d", "value": 0},
      {"measurement": "damage to plant (100=total damage to plant; 0=no damage to plant), BRAPL", "setting": "rate 130, evaluated after 15 d", "value": 40},
      {"measurement": "damage to plant (100=total damage to plant; 0=no damage to plant), BRAPL", "setting": "rate 250, evaluated after 15 d", "value": 60},
      {"measurement": "damage to plant (100=total damage to plant; 0=no damage to plant), BRAPL", "setting": "rate 500, evaluated after 15 d", "value": 70},
      {"measurement": "damage to plant (100=total damage to plant; 0=no damage to plant), CYPES", "setting": "rate 130, evaluated after 15 d", "value": 0},
      {"measurement": "damage to plant (100=total damage to plant; 0=no damage to plant), CYPES", "setting": "rate 250, evaluated after 15 d", "value": 0},
      {"measurement": "damage to plant (100=total damage to plant; 0=no damage to plant), CYPES", "setting": "rate 500, evaluated after 15 d", "value": 10},
      {"measurement": "damage to plant (100=total damage to plant; 0=no damage to plant), DIGSA", "setting": "rate 130, evaluated after 15 d", "value": 0},
      {"measurement": "damage to plant (100=total damage to plant; 0=no damage to plant), DIGSA", "setting": "rate 250, evaluated after 15 d", "value": 10},
      {"measurement": "damage to plant (100=total damage to plant; 0=no damage to plant), DIGSA", "setting": "rate 500, evaluated after 15 d", "value": 60},
      {"measurement": "damage to plant (100=total damage to plant; 0=no damage to plant), ECHCG", "setting": "rate 130, evaluated after 15 d", "value": 40},
      {"measurement": "damage to plant (100=total damage to plant; 0=no damage to plant), ECHCG", "setting": "rate 250, evaluated after 15 d", "value": 60},
      {"measurement": "damage to plant (100=total damage to plant; 0=no damage to plant), ECHCG", "setting": "rate 500, evaluated after 15 d", "value": 80},
      {"measurement": "damage to plant (100=total damage to plant; 0=no damage to plant), ELEIN", "setting": "rate 130, evaluated after 15 d", "value": 0},
      {"measurement": "damage to plant (100=total damage to plant; 0=no damage to plant), ELEIN", "setting": "rate 250, evaluated after 15 d", "value": 0},
      {"measurement": "damage to plant (100=total damage to plant; 0=no damage to plant), ELEIN", "setting": "rate 500, evaluated after 15 d", "value": 0},
      {"measurement": "damage to plant (100=total damage to plant; 0=no damage to plant), EPHHL", "setting": "rate 130, evaluated after 15 d", "value": 0},
      {"measurement": "damage to plant (100=total damage to plant; 0=no damage to plant), EPHHL", "setting": "rate 250, evaluated after 15 d", "value": 0},
      {"measurement": "damage to plant (100=total damage to plant; 0=no damage to plant), EPHHL", "setting": "rate 500, evaluated after 15 d", "value": 0},
      {"measurement": "damage to plant (100=total damage to plant; 0=no damage to plant), GLXMA", "setting": "rate 130, evaluated after 15 d", "value": 10},
      {"measurement": "damage to plant (100=total damage to plant; 0=no damage to plant), GLXMA", "setting": "rate 250, evaluated after 15 d", "value": 10},
      {"measurement": "damage to plant (100=total damage to plant; 0=no damage to plant), GLXMA", "setting": "rate 500, evaluated after 15 d", "value": 20},
      {"measurement": "damage to plant (100=total damage to plant; 0=no damage to plant), IPOHE", "setting": "rate 130, evaluated after 15 d", "value": 0},
      {"measurement": "damage to plant (100=total damage to plant; 0=no damage to plant), IPOHE", "setting": "rate 250, evaluated after 15 d", "value": 0},
      {"measurement": "damage to plant (100=total damage to plant; 0=no damage to plant), IPOHE", "setting": "rate 500, evaluated after 15 d", "value": 0},
      {"measurement": "damage to plant (100=total damage to plant; 0=no damage to plant), ORYSA", "setting": "rate 130, evaluated after 15 d", "value": 0},
      {"measurement": "damage to plant (100=total damage to plant; 0=no damage to plant), ORYSA", "setting": "rate 250, evaluated after 15 d", "value": 0},
      {"measurement": "damage to plant (100=total damage to plant; 0=no damage to plant), ORYSA", "setting": "rate 500, evaluated after 15 d", "value": 20},
      {"measurement": "damage to plant (100=total damage to plant; 0=no damage to plant), PANMI", "setting": "rate 130, evaluated after 15 d", "value": 0},
      {"measurement": "damage to plant (100=total damage to plant; 0=no damage to plant), PANMI", "setting": "rate 250, evaluated after 15 d", "value": 0},
      {"measurement": "damage to plant (100=total damage to plant; 0=no damage to plant), PANMI", "setting": "rate 500, evaluated after 15 d", "value": 0},
      {"measurement": "damage to plant (100=total damage to plant; 0=no damage to plant), SETFA", "setting": "rate 130, evaluated after 15 d", "value": 0},
      {"measurement": "damage to plant (100=total damage to plant; 0=no damage to plant), SETFA", "setting": "rate 250, evaluated after 15 d", "value": 0},
      {"measurement": "damage to plant (100=total damage to plant; 0=no damage to plant), SETFA", "setting": "rate 500, evaluated after 15 d", "value": 60},
      {"measurement": "damage to plant (100=total damage to plant; 0=no damage to plant), SIDSP", "setting": "rate 130, evaluated after 15 d", "value": 0},
      {"measurement": "damage to plant (100=total damage to plant; 0=no damage to plant), SIDSP", "setting": "rate 250, evaluated after 15 d", "value": 0},
      {"measurement": "damage to plant (100=total damage to plant; 0=no damage to plant), SIDSP", "setting": "rate 500, evaluated after 15 d", "value": 0},
      {"measurement": "damage to plant (100=total damage to plant; 0=no damage to plant), SORVU", "setting": "rate 130, evaluated after 15 d", "value": 0},
      {"measurement": "damage to plant (100=total damage to plant; 0=no damage to plant), SORVU", "setting": "rate 250, evaluated after 15 d", "value": 0},
      {"measurement": "damage to plant (100=total damage to plant; 0=no damage to plant), SORVU", "setting": "rate 500, evaluated after 15 d", "value": 0}
    ]}
  ]
}
